# Measured values as given in patent US8183236B2, “Compounds with HIV-1 integrase inhibitory activity and use thereof as anti-HIV/AIDS therapeutics” (University of Southern California, priority 2007, dated 2012).
# Key:
# [1] = molecular target: T1, HIV-1 integrase (wild-type IN) (Human immunodeficiency virus type 1 group M subtype B, UniProt P12497); experiment: HIV-1 integrase 3′-processing assay (32P-labeled 21-mer, gel); type: biochemical
# From the text: (§1) The oligonucleotides 21 top, 5′-[…]-3′ (SEQ ID NO:1) and 21 bot, 5′-[…]-3′ (SEQ ID NO:2) were purchased from Norris Cancer Center Core Facility (University of Southern California) and purified by UV shadowing on polyacrylamide gel. To analyze the extent of 3′-processing and strand transfer using 5′-end labeled substrates, 21 top was 5′-end labeled using T4 polynucleotide kinase (Epicentre, Madison, Wis.) and γ [^32P]-ATP (Amersham Biosciences or ICN). The kinase was heat-inactivated and 21 bot was added in 1.5-molar excess. The mixture was heated at 95° C., allowed to cool slowly to room temperature, and run through a spin 25 mini-column (USA Scientific) to separate annealed double-stranded oligonucleotide from unincorporated material.
# (§2) To determine the extent of 3′-processing and strand transfer, wild-type IN was preincubated at a final concentration of 200 nM with the inhibitor in reaction buffer (50 mM NaCl, 1 mM HEPES, pH 7.5, 50 μM EDTA, 50 μM dithiothreitol, 10% glycerol (w/v), 7.5 mM MnCl2, 0.1 mg/ml bovine serum albumin, 10 mM 2-mercaptoethanol, 10% dimethyl sulfoxide, and 25 mM MOPS, pH 7.2) at 30° C. for 30 min. Then, 20 nM of the 5′-end ^32P-labeled linear oligonucleotide substrate was added, and incubation was continued for an additional one hour. Reactions were quenched by the addition of an equal volume (16 μl) of loading dye (98% deionized formamide, 10 mM EDTA, 0.025% xylene cyanol and 0.025% bromophenol blue). An aliquot (5 μl) was electrophoresed on a denaturing 20% polyacrylamide gel (0.09 M tris-borate pH 8.3, 2 mM EDTA, 20% acrylamide, 8M urea).
# (§3) Gels were dried, exposed in a PhosphorImager cassette, and analyzed using a Typhoon 8610 Variable Mode Imager (Amersham Biosciences) and quantitated using ImageQuant 5.2. Percent inhibition (% I) was calculated using the following equation: %I=100×[1−(D−C)/(N−C)]
# (§4) where C, N, and D are the fractions of 21-mer substrate converted to 19-mer (3′-processing product) or strand transfer products for DNA alone, DNA plus IN, and IN plus drug, respectively. The IC50 values were determined by plotting the logarithm of drug concentration versus percent inhibition to obtain concentration that produced 50% inhibition. […]
# [2] = molecular target: T1, HIV-1 integrase (wild-type IN); experiment: HIV-1 integrase strand transfer assay (32P-labeled 21-mer, gel); type: biochemical
# From the text: as §1, §2, §3, §4
# [3] = unit inferred, read-out: IN inhibition activity 3′-processing
# [4] = unit inferred, read-out: IN inhibition activity Strand transfer
# [5] = wild-type IN 200 nM, 7.5 mM MnCl2, read-out: Inhibition of IN Catalytic Activities IC50 (μM) 3′-processing
# [6] = wild-type IN 200 nM, 7.5 mM MnCl2, read-out: Inhibition of IN Catalytic Activities IC50 (μM) Strand Transfer
# [7] = unit inferred, read-out: HIV-1 IN Inhibitory Activities 3′-processing
# [8] = unit inferred, read-out: HIV-1 IN Inhibitory Activities Strand transfer
# [9] = Table 54, read-out: IN inhibition activity 3′-processing
# [10] = Table 54, read-out: IN inhibition activity Strand transfer
# [11] = Table 53, structurally diverse compounds, read-out: IN inhibition activity 3′-processing
# [12] = Table 53, structurally diverse compounds, read-out: IN inhibition activity Strand transfer
SMILES,"IC50 [1, 3]","IC50 [2, 4]","IC50 [1, 5]","IC50 [2, 6]",also measured
N#C/C(=C\c1ccc(-c2ccc(O)c(C(=O)O)c2)o1)c1nc2ccccc2[nH]1 [AV15A9],25 ± 10 µM,14 ± 4 µM,,,
Cn1c(SCC(=O)NNC(=O)c2ccccc2O)nnc1-c1ccccc1 [AS9A1],64 ± 4 µM,58 ± 2 µM,,,
CC(C)Cn1c(=O)c(C(=O)Nc2ccccc2S(N)(=O)=O)c(O)c2ccccc21 [Compound X228],,,40 µM,16 µM,
N#Cc1c(/N=C/c2ccc(-c3cccc(C(=O)O)c3)o2)sc2c1CCCC2 [AV15A23],89 ± 20 µM,62 ± 7 µM,,,
O=C(CN1C(=O)/C(=C2\SC(=S)N(CC(=O)Nc3ccc(C(=O)O)cc3)C2=O)SC1=S)Nc1ccc(C(=O)O)cc1 [Compound X102],,,59 ± 31 µM,75 µM,
O=C(CSc1nc(CSc2ccc(Cl)cc2)cc(=O)[nH]1)Nc1ccc(Cl)cc1Cl [Example X272],,,,,"IC50 [1, 7]: 34 µM; IC50 [2, 8]: 24 µM"
O=C(CSc1nc2scc(-c3ccco3)c2c(=O)n1-c1ccccc1)NCc1ccco1 [OT51],,,36 ± 29 µM,14 ± 4 µM,
O=C(O)c1ccc(S(=O)(=O)c2ccc3c(c2)C(=O)N(c2ccc(O)c(C(=O)O)c2)C3=O)cc1 [Compound X125],,,66 ± 6 µM,44 ± 4 µM,
COC(=O)c1ccc(/C=N/Nc2nc3nonc3nc2Nc2ccccc2F)cc1 [AV15A19],> 100 µM,> 100 µM,,,
CCOC(=O)c1sc(N2C(=O)C(O)=C(C(=O)c3ccccc3)C2c2ccc(F)cc2)nc1C (stereo not shown) [Compound M28A10],44 ± 4 µM,21 ± 4 µM,,,
Cc1c(C(c2ccc(O)c(O)c2)c2c(C)n(C)n(-c3ccccc3)c2=O)c(=O)n(-c2ccccc2)n1C [Example X219],,,,,"IC50 [1, 7]: 89 µM; IC50 [2, 8]: 31 µM"
Cc1ccc(C(=O)C2=C(O)C(=O)N(c3ncc(S(=O)(=O)c4ccc([N+](=O)[O-])cc4)s3)C2c2cccc(Cl)c2)cc1 (stereo not shown) [AS139 BAS 02234865],27 ± 10 µM,8 ± 2 µM,,,
CCOc1cc(/C=C2\C(=O)N(c3nnn[nH]3)N=C2C)ccc1OC [GLD12A3],,,,,"IC50 [1, 9]: 75 ± 28 µM; IC50 [2, 10]: 59 ± 13 µM"
O=C(N/N=C/c1ccc(-c2ccc(Cl)c(C(=O)O)c2)o1)c1ccncc1 [AV15A40],90 ± 18 µM,46 ± 23 µM,,,
O=C(N/N=C1/C(=O)Nc2ccc(F)cc21)/C(=C/C=C/c1ccccc1)NC(=O)c1ccccc1 [Compound X231],,,,,"IC50 [1, 7]: 60 µM; IC50 [2, 8]: 38 µM"
O=C(O)CN1C(=O)/C(=C2\SC(=S)N(C(Cc3ccccc3)C(=O)O)C2=O)c2ccccc21 (stereo not shown) [GLD31],,,,,"IC50 [1, 11]: 92 ± 17 µM; IC50 [2, 12]: 66 ± 17 µM"
COc1ccc(C2C(C(=O)c3ccc(Br)cc3)=C(O)C(=O)N2c2cccc(C(F)(F)F)c2)cc1OC (stereo not shown) [AS134],47 ± 7 µM,26 ± 9 µM,,,
O=C(Nc1ccccc1C(=O)O)c1cccc(S(=O)(=O)Nc2cccc([N+](=O)[O-])c2)c1 [Example X148],,,,,"IC50 [1, 7]: 89 µM; IC50 [2, 8]: 90 µM"
COc1cc(/C=N/NC2=NC(=O)C(CC(=O)Nc3ccc(Cl)c(Cl)c3)S2)ccc1O (stereo not shown) [Example X278],,,,,"IC50 [1, 7]: 89 µM; IC50 [2, 8]: 38 µM"
Nc1c(C(=O)Nc2ccc(Cl)c(Cl)c2)sc2[nH]c(=O)c(C(=O)O)cc12 [GLD44],14 ± 6 µM,5 ± 4 µM,,,
COc1ccc2oc(=O)c(-c3csc(N/N=C/c4ccccc4O)n3)cc2c1 [Compound X143],,,,,"IC50 [1, 7]: 30 µM; IC50 [2, 8]: 10 µM"
COc1ccc(OC)c(C2C(C(=O)c3ccc(Cl)cc3)=C(O)C(=O)N2CCCCCC(=O)O)c1 (stereo not shown) [AS16],88 µM,40 ± 5 µM,,,
CCCCCn1c(=O)c(C(=O)Nc2ccccc2S(N)(=O)=O)c(O)c2ccccc21 [XR13],,,11 µM,13 µM,
N#C/C(=C\c1ccc(-c2ccc(C(=O)O)c(O)c2)o1)c1nc2ccccc2[nH]1 [AV15A31],34 µM,24 µM,,,
O=C(Nc1ncccc1O)c1c(O)c2cccc3c2n(c1=O)CCC3 [LM11],,,56 µM,15 µM,

SMILES,"IC50 [1, 3]","IC50 [2, 4]","IC50 [1, 5]","IC50 [2, 6]",also measured
Nc1cc(N)nc(SCC(=O)O)n1 [GLD2A3],> 100 µM,> 100 µM,,,
O=C(CCN1C(=O)C(=Cc2ccc3c(c2)OCO3)SC1=S)Nc1ccc(O)c(C(=O)O)c1 [Compound X94],,,15 ± 10 µM,17 ± 11 µM,
CC1=NN2C(=N)/C(=C/c3ccc(-c4ccccc4Cl)o3)C(=O)N=C2S1 [RT42],,,> 100 µM,> 100 µM,
COc1cc(C(=O)Nc2ccc(O)c(C(=O)O)c2)cc(OC)c1OC [Compound X108],,,> 100 µM,> 100 µM,
O=C(CSc1nnc(-c2ccc(Cl)cc2)n1-c1ccccc1)N/N=C/c1ccccc1C(=O)O [GLD39],> 100 µM,> 100 µM,,,
Cc1cccc(Nc2nc3nonc3nc2N/N=C/c2ccc(-c3cccc(C(=O)O)c3)o2)c1 [AV15A21],10 ± 5 µM,7 ± 2 µM,,,
N#C/C(=C\c1ccc(-c2cccc(C(=O)O)c2)o1)c1nc2ccccc2[nH]1 [AV15A7],> 100 µM,17 µM,,,
CC(C)(C)c1ccc(OCC(=O)N/N=C/c2ccc(-c3cccc(C(=O)O)c3)o2)cc1 [AV15A35],> 100 µM,86 µM,,,
O=C(CSc1nnc(Cc2ccccc2)n1C1CCCCC1)NNC(=O)c1ccccc1O [AS9A4],21 ± 2 µM,17 ± 1 µM,,,
CCn1cc(C(=O)O)c(=O)c2c(N)c(F)c(N3CCNCC3)c(F)c21 [ROM3A7],,,> 100 µM,95 µM,
O=C(Nc1ccccc1C(=O)O)c1cccc(S(=O)(=O)Nc2ccc(Oc3ccccc3)cc2)c1 [GLD25],,,,,"IC50 [1, 11]: 42 ± 10 µM; IC50 [2, 12]: 18 ± 3 µM"
Cc1cc2nc(-c3cc(NC(=O)c4ccc(F)cc4)ccc3O)oc2cc1C [XR16],,,,,"IC50 [1, 7]: < 100 µM; IC50 [2, 8]: < 100 µM"
Cc1ccc(C=C2SC(=S)N(CC(=O)Nc3ccc([N+](=O)[O-])cc3O)C2=O)cc1 [Compound X195],,,> 100 µM,> 100 µM,
COc1cc(/C=C2/SC(=S)N(CC(=O)O)C2=O)ccc1OC(=O)c1ccc(F)cc1 [OT9],,,> 100 µM,97 ± 5 µM,
CCn1cc(C(=O)O)c(=O)c2cc(F)c(NNC(=O)C3CCCCC3)cc21 [ROM3A1],,,> 100 µM,> 100 µM,
O=C(/C=C/c1ccc(Cl)cc1)Nc1ccc(NC(=O)c2ccco2)cc1 [Example X159],,,,,"IC50 [1, 7]: 90 µM; IC50 [2, 8]: 91 µM"
COc1cc(/C=C2/SC(=S)N(CC(=O)O)C2=O)ccc1OCc1ccccc1Cl [OT4],,,48 ± 7 µM,22 ± 4 µM,
Cc1ccc(C=C2SC(=S)N(CC(=O)Nc3cccc(C(=O)O)c3)C2=O)cc1 [Compound X97],,,98 ± 4 µM,> 100 µM,
COc1cc(/C=C2\C(=O)N(c3nnn[nH]3)N=C2C)cc(Cl)c1OC [GLD12A2],,,,,"IC50 [1, 9]: 5 ± 2 µM; IC50 [2, 10]: 4 ± 2 µM"
COc1cc(C(=O)Nc2ccc(O)c(-c3nc4ccccc4o3)c2)cc(OC)c1OC [XR18],,,,,"IC50 [1, 7]: < 100 µM; IC50 [2, 8]: < 100 µM"
CCn1cc(C(=O)O)c(=O)c2cnc(N3CCN(C(=S)NC(=O)c4ccc(F)c(F)c4)CC3)nc21 [ROM3A4],,,64 µM,59 µM,
Cc1ccc(-n2c(SCC(=O)NNC(=O)c3ccccc3O)nnc2-c2ccccc2)cc1 [AS120],23 ± 6 µM,12 ± 8 µM,,,
CCOc1cc(/C=C2/C(=N)N3N=C(C(C)(F)F)SC3=NC2=O)ccc1OCc1ccc(F)cc1 [RT35],,,90 µM,19 µM,
COc1ccc(C2C(C(=O)c3ccco3)=C(O)C(=O)N2CCN2CCOCC2)c(OC)c1 (stereo not shown) [MMC8],,,,,"IC50 [1, 7]: > 1000 µM; IC50 [2, 8]: 395 µM"
CCCCn1c(=O)c(C(=O)Nc2ccccc2S(N)(=O)=O)c(O)c2ccccc21 [XR14],,,15 µM,17 µM,
